ChEMBL document CHEMBL1140347, “Peptidyl vinyl ester derivatives: new class of selective inhibitors of proteasome trypsin-like activity” (J Med Chem, 2005)

Columns and labels:
[1] = Half-life in culture medium (RPMI) in the presence of 10% foetal calf serum by incubation at […]; assay type: ADME; details: cattle, culture medium (RPMI) with 10% foetal calf serum
[2] = test system: Proteasome; assay: Inhibition of trypsin like activity of the proteasome in colon carcinoma cell lines COO115; assay type: subcellular
[3] = test system: Proteasome; assay: Inhibition of post-acidic-like (PGPH) activity of the proteasome purified from lymphoblastoid cell lines (in vitro)
[4] = test system: Proteasome; assay: Inhibition of chymotrypsin like activity of the proteasome purified from lymphoblastoid cell lines (in vitro); assay type: subcellular
[5] = test system: Proteasome; assay: Inhibition of trypsin like activity of the proteasome purified from lymphoblastoid cell lines (in vitro); assay type: subcellular
[6] = Half-life in human plasma by incubation at […]; assay type: ADME, cell-free
[7] = test system: Proteasome; assay: Inhibition of trypsin like activity of the proteasome in colon carcinoma cell lines HCT116; assay type: subcellular

half-life [1] [h] | IC50 [2] [nM] | IC50 [3] [nM] | IC50 [4] [nM] | IC50 [5] [nM] | half-life [6] [h] | IC50 [7] [nM] | Compound
> 6 | 41 | > 10000 | 4210 | 41 | > 6 | – | CCOC(=O)/C=C/[C@H](CC(C)C)NC(=O)[C@H](CC(C)C)NC(=O)[C@H](CC(C)C)NC(=O)c1cccc(O)c1C
> 6 | – | > 10000 | > 10000 | 110 | 2.57 | – | CCOC(=O)/C=C/[C@H](CC(C)C)NC(=O)[C@H](CO)NC(=O)[C@@H](NC(=O)C1=CCCN(C(=O)OC(C)(C)C)C1)C(C)C
> 6 | – | > 10000 | 6540 | 380 | > 6 | – | CCOC(=O)/C=C/[C@H](CC(C)C)NC(=O)[C@H](CO)NC(=O)[C@@H](NC(=O)C1=CCCNC1)C(C)C
> 6 | – | > 10000 | > 10000 | 33 | > 6 | 33 | CCOC(=O)/C=C/[C@H](CC(C)C)NC(=O)[C@H](CO)NC(=O)[C@@H](NC(=O)c1cccc(O)c1C)C(C)C
> 6 | – | > 10000 | > 10000 | 71 | 3.97 | – | CCOC(=O)/C=C/[C@H](CC(C)C)NC(=O)[C@H](CO)NC(=O)[C@@H](NC(=O)OCc1ccccc1)C(C)C
> 6 | – | > 10000 | 860 | 210 | > 6 | – | CCOC(=O)/C=C/[C@H](CC(C)C)NC(=O)[C@H](CC(C)C)NC(=O)[C@H](CC(C)C)NC(=O)C1=CCCNC1
> 6 | – | > 10000 | 2450 | 280 | 4.87 | – | CCOC(=O)/C=C/[C@H](CC(C)C)NC(=O)[C@H](CC(C)C)NC(=O)[C@H](CC(C)C)NC(=O)OCc1ccccc1
> 6 | – | > 10000 | 4360 | 190 | 3.3 | – | CCOC(=O)/C=C/[C@H](CC(C)C)NC(=O)[C@H](CC(C)C)NC(=O)[C@H](CC(C)C)NC(=O)C1=CCCN(C(=O)OC(C)(C)C)C1
